The test system of data set [1] is isolated primary human T cells. The data set can be described thus: GFP mRNA-LNP transfection of primary human T cells, flow cytometry. The data set is classed as cell-based. The conditions noted are these: for protein expression (GFP MFI) compared with MC3: FIG. 5, CT10, N/P 8, 500 ng mRNA per 125,000 cells, 3 days after activation, 48 h; for amount of protein produced (MFI) in human T cells compared with MC3: summary. An outline of the steps: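 Negatively selected primary human T cells, dosed with GFP mRNA-LNPs either fresh at 2 μg mRNA per 500,000 cells (40:20:37.5:2.5 mol% ionizable lipid/DSPC/cholesterol/BRIJ S10, N/P 10) or post-activation at 500 ng per 125,000 cells (CT10, N/P 8). After 48 h, flow cytometry with viability and CD4/CD8/CD25 staining read GFP MFI and transfection efficiency.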

A short description of data set [2]: Nucleic acid encapsulation efficiency by RiboGreen assay. The class given is physicochemical.
Data set [3] is described as follows: TNS assay, surface pKa of lipid nanoparticles. The class given is physicochemical. An outline of the steps: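 Empty LNPs containing the ionizable lipid (LM02 composition, 0.781 mM total lipid before mixing) were combined with TNS in 10 mM HEPES, 10 mM MES, 10 mM NH4OAc, 130 mM NaCl buffers at pH 3–9 in 0.5 steps. Fluorescence was read at room temperature (ex 321/em 445 nm); pKa was taken as the pH of half-maximal intensity from a sigmoidal fit.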

Setting [4] is: Table 6, GFP-encoded LNPs, CT10, N/P 8.
The mark [5] stands for this setting: Table 7, EPO mRNA LNPs, LM02, N/P 6.
[6] abbreviates: Table 1, formulated lipid nanoparticles, TNS assay, read-out: Exp. pKa.

Where two headings read alike, the source gives them in different places.

Regarding `CCCCC/C=C\C/C=C\CCCCCCCC(=O)O[C@@H]1[C@@H](OC(=O)CCCCCCC/C=C\C/C=C\CCCCC)CO[C@@H]1COC(=O)C1(C)CCN(C)C1` (mixture of isomers) [PNI 329], in data set [1], the “amount of protein produced (MFIs) compared with MC3” value is recorded as “better than MC3”, the “protein expression (GFP MFI) compared with MC3” value was “higher levels of protein expression than MC3” and the “amount of protein produced (MFI) in human T cells compared with MC3” value (from here on “amount … in human T cells compared with MC3”) is listed as “better than MC3”. Moreover, the “Encapsulation Efficiency (%)” value in data set [2] (setting [4]) is listed as 93.2%. Further, the “Encapsulation Efficiency (%)” value in data set [2] (setting [5]) was found to be 94.4%. For the same molecule, the pKa in data set [3] (setting [6]) came out at 5.88. In data set [3] (Table 8, read-out: Exp.pKa), the pKa came to 5.88.
With `CCCCC/C=C\C/C=C\CCCCCCCC(=O)O[C@@H]1[C@@H](OC(=O)CCCCCCC/C=C\C/C=C\CCCCC)CO[C@@H]1COC(=O)CCCN1CCCC1` (racemic) [PNI 539], the “Encapsulation Efficiency (%)” value in data set [2] (setting [5]) is 88.2%. In addition, the pKa came out at 6.6 in data set [3] (setting [6]) and 6.6 in data set [3] (Table 8, read-out: Exp.pKa).
With `CCCCC/C=C\C/C=C\CCCCCCCC(=O)O[C@@H]1[C@@H](OC(=O)CCCCCCC/C=C\C/C=C\CCCCC)CO[C@@H]1COC(=O)CCCN(C)C` (racemic) [PNI 121], in data set [1] (FIG. 1, eGFP mRNA LNP, CT10, N/P 10, 48 hours after treatment), the “transfection efficiency compared with MC3” value was “greater than MC3”. Also, the “transfection efficiency compared with MC3 in various donors” value in data set [1] (FIG. 2, six donors, treated 7 days post activation, 48 hours) was “greater than those containing clinically validated MC3”. Moreover, the “viability of T cells compared to untreated cells” value in data set [1] (six-donor experiment, not shown) is “unaffected”. Further, in data set [1], the “amount … in human T cells compared with MC3” value is recorded as “better than MC3”. Also, the entries for the “Encapsulation Efficiency (%)” value in data set [2] (setting [4]) and in data set [2] (setting [5]) were 87.3% and 98.8%, respectively. Moreover, the pKa in data set [3] (setting [6]) was determined as 6.83; in data set [3] (Table 5, read-out: pKa Exp.), 6.83; in data set [3] (Table 8, read-out: Exp.pKa) it was 6.8.
Take `CCCCC/C=C\C/C=C\CCCCCCCC(=O)O[C@@H]1[C@@H](OC(=O)CCCCCCC/C=C\C/C=C\CCCCC)CO[C@@H]1COC(=O)C1CCN(C)C1` (mixture of isomers) [PNI 328]: in data set [1], the “protein expression (GFP MFI) compared with MC3” value is “higher levels of protein expression than MC3”. Further, in data set [1], the “amount … in human T cells compared with MC3” value is “better than MC3”. The “Encapsulation Efficiency (%)” value in data set [2] (setting [4]) came out at 92.5%; in data set [2] (setting [5]) it was 96.2%. Moreover, the pKa in data set [3] (setting [6]) was found to be 6.09; in data set [3] (Table 8, read-out: Exp.pKa), 6.09.

The values are drawn from patent US12636368B2, “Ionizable lipids for nucleic acid delivery” (Global Life Sciences Solutions Canada ULC, priority 2019, dated 2026).
